Inconclusive results and toxic doses are left out. How the source made its calls: active means survival T/C of 150% or more; inactive means T/C below 125% in these data.
Test system: CD2F1 mice, L1210 leukemia ip, survival T/C
Test: NCI In Vivo Anticancer Drug Screen. Data for tumor model L1210 Leukemia (intraperitoneal) in CD2F1 (CDF1) mice
Settings: endpoint: mean survival time, higher = longer survival
How it was run: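 Transplantable tumor in mice; compound-treated vs vehicle-treated groups. Read-out = treated/control ratio of the measured endpoint.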

Measured: T/C

OCC1OC(n2ncc3c2nnn2ncnc32)C(O)C1O (stereo unspecified)
inactive: dose: 25.0 mg/kg/injection, schedule: Q01DX005 (ip), vehicle: water 92 % of control | dose: 50.0 mg/kg/injection, schedule: Q01DX005 (ip), vehicle: water 99 % of control | dose: 100.0 mg/kg/injection, schedule: Q01DX005 (ip), vehicle: water 94 % of control | dose: 200.0 mg/kg/injection, schedule: Q01DX005 (ip), vehicle: water 87 % of control | dose: 400.0 mg/kg/injection, schedule: Q01DX005 (ip), vehicle: water 113 % of control

CC1[N-]C(/C=N/O)NC(C)N1.CC1[N-]C(/C=N/O)NC(C)N1.[Br][Ni+2][Br] (stereo unspecified)
inactive: dose: 5.0 mg/kg/injection, schedule: Q01DX001 (ip), vehicle: saline 105 % of control | dose: 10.0 mg/kg/injection, schedule: Q01DX001 (ip), vehicle: saline 103 % of control | dose: 20.0 mg/kg/injection, schedule: Q01DX001 (ip), vehicle: saline 105 % of control | dose: 40.0 mg/kg/injection, schedule: Q01DX001 (ip), vehicle: saline 108 % of control | dose: 75.0 mg/kg/injection, schedule: Q01DX001 (ip), vehicle: saline 106 % of control | dose: 80.0 mg/kg/injection, schedule: Q01DX001 (ip), vehicle: saline 105 % of control

From PubChem BioAssay AID256 (DTP/NCI, 2004)
